From patent US8822698B2, “Aminoacid derivatives, their process of preparation and their therapeutical uses as inhibitors of oncogenic signals by the Met family” (Universite D'Aix-Marseille, priority 2009, dated 2014)
Entries after “also recorded” stand apart in the source; their conditions may differ.

What was measured:
[1] = Toxicity evaluation in vivo (body and organ weight); set-up: species or system mice
Description: The weight of nude mice treated with the compound of example 4 (30 mg kg-1) or vehicle was measured before, during and after treatment. To evaluate the weight of heart, spleen, kidney, and liver, mice were sacrified after 21 days of treatment, organs were dissected, rinsed in PBS, and weight was measured.
We evaluated whether compounds of general formula elicited toxic effects in vivo by following mouse weight before, during and after treatment. […] We also evaluated the weight of heart, spleen, kidney and liver of mice treated with the compound of example 4 or vehicle.

HepG2 cells = test: Soft agar anchorage-independent growth (in vitro tumorigenesis), HepG2; assay type: cell-based; conditions: Homo sapiens, read-out: HepG2 IC 50
Description: (§1) MDCK cells were grown in Dulbecco's modified Eagle's medium (DMEM) (Gibco BRL) containing 4 mM L-glutamine and supplemented with 2% (v/v) foetal bovine serum (Gibco BRL), 100 U/mL penicillin, and 100 μg/mL streptomycin. Cells were plated at a density of 1000 cells per well in 24-well microplates and allowed to settle overnight at 37° C. in a humidified atmosphere of 5% CO2 prior to treatments. MCF10A human breast cells, MDA-MB231 human breast cancer cells, GTL-16 human gastric carcinoma cells, HepG2 human hepatocellular carcinoma cells, U-87 human glioblastoma-astrocytoma cells and LLC Lewis lung carcinoma cells were grown in RPMI medium (Gibco BRL) containing 4 mM L-glutamine and supplemented with 2% (v/v) foetal bovine serum (Gibco BRL), 100 U/mL penicillin, and 100 μg/mL streptomycin and kept at 37° C. in a humidified atmosphere of 5% CO2.
For scattering assays, MDCK cells were pre-incubated with compounds for 2 hours at 0.1-100 μM concentrations at 37° C. in a humidified atmosphere of 5% CO2, followed by 24 hr stimulation with 20 ng/ml HGF (R&D Systems), as previously described (Patane et al., Biochem Biophys Res Commun 375, 184-189, 2008). […] The quantification of scattering response was performed by counting the number of cells with scattered morphology in 30 independent colonies. […] Viability was assessed with the Cell Titer Glo Luminescent Assay (Promega). […]

GTL-16 cells = test: Soft agar anchorage-independent growth (in vitro tumorigenesis), GTL-16; assay type: cell-based, human
Description: as §1
For scattering assays, MDCK cells were pre-incubated with compounds for 2 hours at 0.1-100 μM concentrations at 37° C. in a humidified atmosphere of 5% CO2, followed by 24 hr stimulation with 20 ng/ml HGF (R&D Systems), as previously described (Patane et al., Biochem Biophys Res Commun 375, 184-189, 2008). The cells were further incubated at 37° C. in an atmosphere of 5% CO2 for 24-48 hours, washed with phosphate-buffered saline (PBS; Gibco BRL), and fixed in PFA (Sigma). The quantification of scattering response was performed by counting the number of cells with scattered morphology in 30 independent colonies. The […] corresponds to the concentration of compounds leading to a 50% inhibition of Met-triggered cell scattering. Active compounds were assayed to impair scattering response also on human breast MCF10A cells following the same procedure. For survival assays, GTL-16, HepG2 and U-87 cells were cultured in serum-free media for 24 hours prior to compound addition for 48 hours. Viability was assessed with the Cell Titer Glo Luminescent Assay (Promega). For in vitro tumorigenesis, soft agar growth assays were preformed using GTL-16, HepG2, and U-87 cells, as previously described (Patane et al., Cancer Res 66, 4750-4757, 2006). […]

MOLT-4 = test: NCI 60 human tumour cell line screen; assay type: cell-based; conditions: conc. 10^−5M; MOLT-4, Leukemia
Text: (§2) Compound of example 4 was screened in the NCI 60 human tumour cell line anticancer drug screen (Shoemaker et al Nature reviews 6, 2006, 813-823).

HOP-92 = test: NCI 60 human tumour cell line screen; assay type: cell-based; conditions: conc. 10^−5M; HOP-92, Non-Small Cell Lung Cancer
Text: as §2

OVCAR-3 = test: NCI 60 human tumour cell line screen; assay type: cell-based; conditions: conc. 10^−5M; OVCAR-3, Ovarian Cancer
Text: as §2

OVCAR-4 = test: NCI 60 human tumour cell line screen; assay type: cell-based; conditions: conc. 10^−5M; OVCAR-4, Ovarian Cancer
Text: as §2

T-47D = test: NCI 60 human tumour cell line screen; assay type: cell-based; conditions: conc. 10^−5M, Breast Cancer
Text: as §2

HT29 = test: NCI 60 human tumour cell line screen; assay type: cell-based; conditions: conc. 10^−5M; HT29, Colon Cancer
Text: as §2

CAK I-1 = test: NCI 60 human tumour cell line screen; assay type: cell-based; conditions: conc. 10^−5M; CAK I-1, Renal Cancer
Text: as §2

786-0 = test: NCI 60 human tumour cell line screen; assay type: cell-based; conditions: conc. 10^−5M; 786-0, Renal Cancer
Text: as §2

ACHN = test: NCI 60 human tumour cell line screen; assay type: cell-based; conditions: conc. 10^−5M, Renal Cancer
Text: as §2

HCT-15 = test: NCI 60 human tumour cell line screen; assay type: cell-based; conditions: conc. 10^−5M; HCT-15, Colon Cancer
Text: as §2

SF-295 = test: NCI 60 human tumour cell line screen; assay type: cell-based; conditions: conc. 10^−5M; SF-295, CNS Cancer
Text: as §2

OVCAR-8 = test: NCI 60 human tumour cell line screen; assay type: cell-based; conditions: conc. 10^−5M; OVCAR-8, Ovarian Cancer
Text: as §2

MDA-MB-468 = test: NCI 60 human tumour cell line screen; assay type: cell-based; conditions: conc. 10^−5M; MDA-MB-468, Breast Cancer
Text: as §2

RPMI -8226 = test: NCI 60 human tumour cell line screen; assay type: cell-based; conditions: conc. 10^−5M; RPMI -8226, Leukemia
Text: as §2

MDA-MB-231/ATCC = test: NCI 60 human tumour cell line screen; assay type: cell-based; conditions: conc. 10^−5M, Breast Cancer
Text: as §2

SNB-19 = test: NCI 60 human tumour cell line screen; assay type: cell-based; conditions: conc. 10^−5M; SNB-19, CNS Cancer
Text: as §2

SNB-75 = test: NCI 60 human tumour cell line screen; assay type: cell-based; conditions: conc. 10^−5M; SNB-75, CNS Cancer
Text: as §2

O=C(Cc1cc(C(F)(F)F)cc(C(F)(F)F)c1)N[C@@H](Cc1ccccc1)C(=O)Nc1ccc(-c2cn3c(n2)sc2ccccc23)cc1 [Example 4, (S)-2-(3,5-bis(trifluoromethyl)phenylacetamido)-3-phenyl-N-[4-(imidazo[2,1-b]benzothiazol-2-yl)phenyl]propanamide]
weight of heart, spleen, kidney and liver ([1]; after 21 days of treatment, versus vehicle): No differences
weight of mice ([1]; daily treated, 30 mg kg-1, compared to vehicle): No significant changes
IC50 (HepG2 cells): 321 nM
Met-triggered anchorage-independent growth (GTL-16 cells; GTL-16 cells, dose dependent, listed as XVI): severely reduced; also recorded: severely affected
IC50 (GTL-16 cells; Homo sapiens, soft agar growth, GTL-16): 811 nM
Growth Percent (MOLT-4): 43.46%
Growth Percent (HOP-92): 71.89%
Growth Percent (OVCAR-3): 2.50%
Growth Percent (OVCAR-4): −0.79%
Growth Percent (T-47D): 67.66%
Growth Percent (HT29): 18.28%
Growth Percent (CAK I-1): 53.37%
Growth Percent (786-0): 60.35%
Growth Percent (ACHN): 81.23%
Growth Percent (HCT-15): 44.16%
Growth Percent (SF-295): 42.18%
Growth Percent (OVCAR-8): 3.54%
Growth Percent (MDA-MB-468): 78.09%
Growth Percent (RPMI -8226): 66.73%
Growth Percent (MDA-MB-231/ATCC): 17.15%
Growth Percent (SNB-19): 69.84%
Growth Percent (SNB-75): 20.69%
